Source: paper PMC9237828, “Chemically Tuning Resveratrol for the Effective Killing of Gram-Positive Pathogens” (Journal of Natural Products, 2022)
In brackets after ≈: the same amount, converted by molar mass.

Key:
[1] = system: panel of aerobic and anaerobic Gram-positive bacteria; experiment: organism not typed; type: cell-based
B. cereus ATCC10987 = experiment: microbe, parasite or virus in culture; type: cell-based, Bacillus cereus; conditions: Bacillus cereus, ATCC10987, 20 h, read-out: Minimal Inhibition Concentration (MIC) B. cereus ATCC10987
S.aureus LMG10147 = experiment: microbe, parasite or virus in culture; type: cell-based, Staphylococcus aureus; conditions: Staphylococcus aureus, LMG10147, 20 h, read-out: Minimal Inhibition Concentration (MIC) S.aureus LMG10147
S.aureus LMG15975 = experiment: microbe, parasite or virus in culture; type: cell-based, Staphylococcus aureus; conditions: Staphylococcus aureus, LMG15975, 20 h, read-out: Minimal Inhibition Concentration (MIC) S.aureus LMG15975
S.aureus LMG8224 = experiment: microbe, parasite or virus in culture; type: cell-based, Staphylococcus aureus; conditions: Staphylococcus aureus, LMG8224, 20 h, read-out: Minimal Inhibition Concentration (MIC) S.aureus LMG8224
C. botulinum CECT551 = experiment: microbe, parasite or virus in culture; type: cell-based; conditions: Clostridium botulinum, CECT551, 24 h, read-out: Minimal Inhibition Concentration (MIC) C. botulinum CECT551
C. tetani CECT4629 = experiment: microbe, parasite or virus in culture; type: cell-based; conditions: Clostridium tetani, CECT4629, 24 h, read-out: Minimal Inhibition Concentration (MIC) C. tetani CECT4629
C. beijerinckii B504 = experiment: MIC test, anaerobes; type: cell-based; conditions: Clostridium beijerinckii, B504, 24 h; read-out: Minimal Inhibition Concentration (MIC) C. beijerinckii B504
Description: (§1) The resveratrol derivatives were serially diluted in cMHB (BD Difco) in 96-well microplates. Plates were then inoculated with the indicator bacteria at a final concentration of 5 × 10^5 CFU/mL and incubated at 37 °C for 20 h. In the case of the anaerobic bacteria (Clostridium and Clostridioides), the test was performed following the recommendation of CLSI for anaerobes[77] but using RCM medium instead of cMHB. The cultures were cultivated inside an anaerobic chamber at 37 °C for 24 h. All the tests were performed in triplicate.

C. ihumii AP5 = experiment: MIC test, anaerobes; type: cell-based; conditions: 24 h; read-out: Minimal Inhibition Concentration (MIC) C. ihumii AP5
Description: as §1

B. cereus ATCC14579 = experiment: microbe, parasite or virus in culture; type: cell-based, Bacillus cereus; conditions: Bacillus cereus, ATCC14579, 20 h, read-out: Minimal Inhibition Concentration (MIC) B. cereus ATCC14579
C. perfringens CECT376 = experiment: microbe, parasite or virus in culture; type: cell-based; conditions: Clostridium perfringens, CECT376, 24 h, read-out: Minimal Inhibition Concentration (MIC) C. perfringens CECT376
C. difficile CECT531 = experiment: microbe, parasite or virus in culture; type: cell-based, Clostridioides difficile; conditions: Clostridioides difficile, CECT531, 24 h, read-out: Minimal Inhibition Concentration (MIC) C. difficile CECT531
E. faecalis LMG08222 = experiment: microbe, parasite or virus in culture; type: cell-based, Enterococcus faecalis; conditions: Enterococcus faecalis, LMG08222, 20 h, read-out: Minimal Inhibition Concentration (MIC) E. faecalis LMG08222
E. faecalis V583 = experiment: microbe, parasite or virus in culture; type: cell-based, Enterococcus faecalis; conditions: Enterococcus faecalis, V583, 20 h, read-out: Minimal Inhibition Concentration (MIC) E. faecalis V583
S. aureus LMG8224 = experiment: Combined action with antibiotics (MIC reduction, checkerboard FICI); type: cell-based, Staphylococcus aureus; conditions: for MIC of antibiotic in combination with RES: RES at 4 μM; for FICI, antibiotic with 15 / FICI, antibiotic with 17: fractional inhibitory concentration index, EUCAST, * means relevant FICI values
E. faecium LMG16003 [2] = experiment: microbe, parasite or virus in culture; type: cell-based; conditions: Enterococcus faecium, LMG16003, 20 h, read-out: Minimal Inhibition Concentration (MIC) E. faecium LMG16003
E. faecium LMG16003 [3] = experiment: Combined action with antibiotics (MIC reduction, checkerboard FICI); type: cell-based; conditions: for FICI, antibiotic with 15 / FICI, antibiotic with 17: fractional inhibitory concentration index, EUCAST, * means relevant FICI values; for MIC of antibiotic in combination with RES: RES at 8 μM

Molecule	antibacterial activity against the Gram-positive panel [1]	MIC (B. cereus ATCC10987) [µM]	MIC (S.aureus LMG8224) [µM]	MIC (C. perfringens CECT376) [µM]	MIC (C. difficile CECT531) [µM]	MIC (E. faecalis V583) [µM]	MIC of antibiotic in combination with 15 (S. aureus LMG8224; 15 at 2 μM) [µM]	MIC of antibiotic in combination with 15 (S. aureus LMG8224; 15 at 4 μM) [µM]	MIC of antibiotic in combination with 17 (S. aureus LMG8224; 17 at 4 μM) [µM]	MIC of antibiotic in combination with RES (S. aureus LMG8224) [µM]	MIC of antibiotic alone (Ab) (S. aureus LMG8224) [µM]	FICI, antibiotic with 15 (S. aureus LMG8224)	FICI, antibiotic with 17 (S. aureus LMG8224)	MIC of antibiotic in combination with 15 (E. faecium LMG16003 [3]; 15 at 4 μM) [µM]	MIC of antibiotic in combination with 15 (E. faecium LMG16003 [3]; 15 at 8 μM) [µM]	FICI, antibiotic with 15 (E. faecium LMG16003 [3])	further results
CC(C)[Si](Oc1ccc(/C=C/c2cc(O[Si](C(C)C)(C(C)C)C(C)C)cc(O[Si](C(C)C)(C(C)C)C(C)C)c2)cc1)(C(C)C)C(C)C [compound 22]	not active or displayed very low antibacterial activity																
CCCCCCCC(=O)OC[C@H]1O[C@@H](Oc2cc(/C=C/c3ccc(OC)cc3)cc(OC)c2)[C@H](O)[C@@H](O)[C@@H]1O [compound 28]	weak antibacterial activity	128 (≈ 69.7 µg/mL)	128 (≈ 69.7 µg/mL)	128 (≈ 69.7 µg/mL)	85.3 ± 21.3 (≈ 46.5 µg/mL)												MIC (S.aureus LMG10147): 128 µM (≈ 69.7 µg/mL); MIC (S.aureus LMG15975): 128 µM (≈ 69.7 µg/mL); MIC (C. botulinum CECT551): 26.6 ± 5.3 µM (≈ 14.5 µg/mL); MIC (C. tetani CECT4629): 16 µM (≈ 8.71 µg/mL); MIC (C. beijerinckii B504): 32 µM (≈ 17.4 µg/mL); MIC (C. ihumii AP5): 64 µM (≈ 34.9 µg/mL); MIC (B. cereus ATCC14579): 128 µM (≈ 69.7 µg/mL)
COc1cc(O)cc(/C=C/c2ccc(O[C@H]3O[C@@H](C(=O)O)[C@H](O)[C@@H](O)[C@@H]3O)cc2)c1 [compound 29]	did not show antibiotic activity																
CC(C)(C)[Si](C)(C)Oc1ccc(/C=C/c2cc(OS(=O)(=O)O)cc(OS(=O)(=O)O)c2)cc1 [compound 34, 3,5-Disulfate-4′-tert-butyldimethylsilyl resveratrol]				128 (≈ 64.3 µg/mL)													MIC (C. botulinum CECT551): 53.3 ± 10.6 µM (≈ 26.8 µg/mL); MIC (C. tetani CECT4629): 5.3 ± 1.3 µM (≈ 2.66 µg/mL); MIC (C. beijerinckii B504): 32 µM (≈ 16.1 µg/mL); MIC (C. ihumii AP5): 128 µM (≈ 64.3 µg/mL)
CC(C)[Si](Oc1ccc(/C=C/c2cc(O[Si](C(C)C)(C(C)C)C(C)C)cc(OS(=O)(=O)O)c2)cc1)(C(C)C)C(C)C [compound 36, 3-Sulfate-4′,5-diisopropylsilyl resveratrol]						128 (≈ 79.5 µg/mL)											MIC (E. faecalis LMG08222): 128 µM (≈ 79.5 µg/mL)
CNC(C)C1CCC(N)C(OC2C(N)CC(N)C(OC3OCC(C)(O)C(NC)C3O)C2O)O1 (stereo not shown) [gentamicin]		4 (≈ 1.91 µg/mL)	1 ± 0.35 (≈ 0.478 µg/mL)	> 32	> 32	> 32	0.5 ± 0	0.1 ± 0	0.1 ± 0	1 ± 0	1 ± 0	0.37	0.58	13.3 ± 1.8	5.3 ± 0.9	0.41	MIC of antibiotic in combination with 17 (S. aureus LMG8224; 17 at 2 μM): 0.3 ± 0 µM; MIC (E. faecium LMG16003 [2]): 12.6 ± 1.61 µM (≈ 6 µg/mL); MIC of antibiotic in combination with 17 (E. faecium LMG16003 [3]; 17 at 2 μM): 13.3 ± 1.8 µM; MIC of antibiotic in combination with 17 (E. faecium LMG16003 [3]; 17 at 4 μM): 6.6 ± 0.9 µM; FICI, antibiotic with 17 (E. faecium LMG16003 [3]): 0.66
CN[C@H](CC(C)C)C(=O)N[C@H]1C(=O)N[C@@H](CC(N)=O)C(=O)N[C@H]2C(=O)N[C@H]3C(=O)N[C@H](C(=O)N[C@H](C(=O)O)c4cc(O)cc(O)c4-c4cc3ccc4O)[C@H](O)c3ccc(c(Cl)c3)Oc3cc2cc(c3O[C@@H]2O[C@H](CO)[C@@H](O)[C@H](O)[C@H]2O[C@H]2C[C@](C)(N)[C@H](O)[C@H](C)O2)Oc2ccc(cc2Cl)[C@H]1O [vancomycin, reference compound]		6 ± 2 (≈ 8.7 µg/mL)	10.7 ± 2.7 (≈ 15.5 µg/mL)	0.18 ± 0.06 (≈ 0.261 µg/mL)	1.25 ± 0.75 (≈ 1.81 µg/mL)	9.8 ± 2.7 (≈ 14.2 µg/mL)											MIC (E. faecium LMG16003 [2]): > 32 µM
Resveratrol-3-glucuronate [compound 8]	did not show antibiotic activity																
bacitracin							26.6 ± 3.7	4 ± 0	6.6 ± 0.9	>32	>32	0.31*	0.41*	16 ± 0	0.3 ± 0.2	0.27*	MIC of antibiotic in combination with 17 (E. faecium LMG16003 [3]; 17 at 2 μM): 32 ± 0 µM; MIC of antibiotic in combination with 17 (E. faecium LMG16003 [3]; 17 at 4 μM): 16 ± 0 µM; MIC of antibiotic in combination with RES (E. faecium LMG16003 [3]): >32 µM; MIC of antibiotic alone (Ab) (E. faecium LMG16003 [3]): >32 µM; FICI, antibiotic with 17 (E. faecium LMG16003 [3]): 0.75*
polymyxin B							8 ± 0	1 ± 0	6.6 ± 0.9	>32	>32	0.25*	0.45*	21.3 ± 3.7	1.8 ± 0.2	0.27*	MIC of antibiotic in combination with 17 (S. aureus LMG8224; 17 at 2 μM): 13.3 ± 1.8 µM; MIC of antibiotic in combination with RES (E. faecium LMG16003 [3]): >32 µM; MIC of antibiotic alone (Ab) (E. faecium LMG16003 [3]): >32 µM
